Data taken from patent publication US4983608A, “N-substituted-4-pyrimidinamines and pyrimidinediamines” (Hoechst-Roussell Pharmaceuticals, Inc., priority 1989, dated 1991).

What was measured:
Type in all cases: in vivo
[1] = system: phenyl-para-quinone writhing; test: phenyl-para-quinone writhing assay in mice (analgesia); conditions: Mus musculus, sc, 20 mg/kg s.c., read-out: Analgesic Activity % Inhibition of Writhing at a Screening Dose of 20 mg/kg s.c.
Experimental: Exptl. Biol. Med., 95, 729 (1957)]. Presented in Table I is the analgesic effect of some of the compounds of the invention, expressed as the percent decrease in writhing at a given dose (20 mg/kg s.c.).

[2] = system: Scopolamine Induced Memory Deficit; test: Dark Avoidance Assay (reversal of scopolamine induced memory deficit); conditions: mice, retest after 24 hours
Experimental: The N-substituted-4-pyrimidinamines and pyrimidinediamines of the present invention are also useful in the treatment of various memory dysfunctions such as Alzheimer's disease.
In this assay, mice are tested for their ability to remember an unpleasant stimulus for a period of 24 hours. A mouse is placed in a chamber that contains a dark compartment; a strong incandescent light drives it to the dark compartment, where an electric shock is administered through metal plates on the floor. The animal is removed from the testing apparatus and tested again, 24 hours later, for the ability to remember the electric shock.
If scopolamine, an anticholinergic that is known to cause memory impairment is administered before an animal's initial exposure to the test chamber, the animal re-enters the dark compartment shortly after being placed in the test chamber 24 hours later. This effect of scopolamine is blocked by an active test compound, resulting in a greater interval before re-entry into the dark compartment.
The results for an active compound are expressed as the percent of a group of animals in which the effect of scopolamine is blocked, as manifested by an increased interval between being placed in the test chamber and re-entering the dark compartment.

[3] = system: phenyl-para-quinone writhing; test: phenyl-para-quinone writhing assay in mice (analgesia); conditions: 3.9 mg/kg s.c. (standard)

In the case of `CN(c1ccnc(Cl)n1)n1cccc1` [2-Chloro-N-methyl-N-(1H-pyrrol-1-yl)-4-pyrimidinamine], the inhibition in vivo at 20 mg/kg [1] is reported as 38%.

For `N#Cc1cncnc1Nn1ccc2ccccc21` [5-Cyano-N-(1H-indol-1-yl)-4-pyrimidinamine], the inhibition in vivo at 20 mg/kg [1] was 44% and the “% of Animals with Scopolamine Induced Memory Deficit Reversed” value (“% of Animals” below) ([2]; 1.25 mg/kg s.c. by body weight) was 27%.

With `CCCN(c1ncncc1C#N)n1ccc2ccccc21` [5-Cyano-N-(1H-indol-1-yl)-N-propyl-4-pyrimidinamine] the inhibition in vivo at 20 mg/kg [1] was 75%.

In the case of `CCCN(c1cc(Cl)ncn1)n1ccc2ccccc21` [6-Chloro-N-(1H-indol-1-yl)-N-propyl-4-pyrimidinamine], the inhibition in vivo at 20 mg/kg [1] is reported as 40% and the “% of Animals” value ([2]; 1.25 mg/kg s.c. by body weight) is reported as 47%.

`Clc1cc(Nn2cccc2)ncn1` [6-Chloro-N-(1H-pyrrol-1-yl)-4-pyrimidinamine] was tested, and the inhibition in vivo at 20 mg/kg [1] was 39%.

With `Cc1cn(Nc2cc(Cl)ncn2)c2ccccc12` [6-Chloro-N-(3-methyl-1H-indol-1-yl)-4-pyrimidinamine] the inhibition in vivo at 20 mg/kg [1] was 45% and the “% of Animals” value ([2]; 1.25 mg/kg s.c. by body weight) was 33%.

In the case of `CCCN(c1cc(Cl)ncn1)n1cc(C)c2ccccc21` [6-Chloro-N-(3-methyl-1H-indol-1-yl)-N-propyl-4-pyrimidinamine], the inhibition in vivo at 20 mg/kg [1] is reported as 36%.

For `CN(c1cc(Cl)ncn1)n1cccc1` [6-Chloro-N-methyl-N-(1H-pyrrol-1-yl)-4-pyrimidinamine], the inhibition in vivo at 20 mg/kg [1] was 42%.

Work on `CCCN(c1cc(Cl)ncn1)n1cccc1` [6-Chloro-N-propyl-N-(1H-pyrrol-1-yl)-4-pyrimidinamine] yielded an inhibition in vivo at 20 mg/kg [1] of 46%.

With `Cc1cn(Nc2cc(Nn3cc(C)c4ccccc43)ncn2)c2ccccc12` [N,N'-bis(3-methyl-1H-indol-1-yl)-4,6-pyrimidinediamine] the inhibition in vivo at 20 mg/kg [1] was 33%.

With `CCCN(c1ccncn1)n1ccc2ccccc21` [N-(1H-Indol-1-yl)-N-propyl-4-pyrimidinamine] the inhibition in vivo at 20 mg/kg [1] was 58% and the “% of Animals” value ([2]; 1.25 mg/kg s.c. by body weight) was 27%.

With `c1ccn(Nc2ccncn2)c1` [N-(1H-pyrrol-1-yl)-4-pyrimidinamine, N-(1H-Pyrrol-1-yl)-4-pyrimidinamine] the inhibition in vivo at 20 mg/kg [1] was 30%.

With `Cc1cn(Nc2ccncn2)c2ccccc12` [N-(3-methyl-1H-indol-1-yl)-4-pyrimidinamine] the “% of Animals” value ([2]; 1.25 mg/kg s.c. by body weight) was 20%.

`CCCN(c1ccncn1)n1cc(C)c2ccccc21` [N-(3-methyl-1H-indol-1-yl)-N-propyl-4-pyrimidinamine] showed an inhibition in vivo at 20 mg/kg [1] of 60%.

`c1ccc2c(c1)c1ccccc1n2Nc1ccncn1` [N-(pyrimidin-4-yl)-9H-carbazol-9-amine, N-(Pyrimidin-4-yl)-9H-carbazol-9-amine] was tested, and the inhibition in vivo at 20 mg/kg [1] was 65%.

In the case of `CC[C@@H]1C(=O)OC[C@@H]1Cc1cncn1C` [Pilocarpine, reference compound], the “% of Animals” value ([2]; 5.00 mg/kg s.c. by body weight (standard)) is reported as 23%.

In the case of `CCC(=O)O[C@](Cc1ccccc1)(c1ccccc1)[C@H](C)CN(C)C` [Propoxyphene], the “Analgesic Activity % Inhibition of Writhing” value [3] is reported as 50%.
